This test relates to P388 leukemia ip, CD2F1 mice, survival T/C. As to the kind of experiment: NCI In Vivo Anticancer Drug Screen. Data for tumor model P388 Leukemia (intraperitoneal) in CD2F1 (CDF1) mice. Particulars: endpoint: median survival time, higher = longer survival. The essentials: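 Mice carrying the transplanted tumor received test compound or vehicle. Survival was recorded in each group, and the value is the treated-group measurement divided by that of the vehicle-treated control group.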

[1] abbreviates: dose: 50.0 mg/kg/injection, schedule: Q01DX009 (ip), vehicle: Klucel (hydroxypropylcellulose) (HPC).
Setting [2] is: dose: 100.0 mg/kg/injection, schedule: Q01DX009 (ip), vehicle: Klucel (hydroxypropylcellulose) (HPC).
Where [3] appears, read: dose: 200.0 mg/kg/injection, schedule: Q01DX009 (ip), vehicle: Klucel (hydroxypropylcellulose) (HPC).
Setting [4] is: dose: 50.0 mg/kg/injection, schedule: Q01DX009 (ip), vehicle: saline.
Where [5] appears, read: dose: 100.0 mg/kg/injection, schedule: Q01DX009 (ip), vehicle: saline.
The mark [6] stands for this setting: dose: 200.0 mg/kg/injection, schedule: Q01DX009 (ip), vehicle: saline.
[7] abbreviates: dose: 50.0 mg/kg/injection, schedule: Q01DX005 (ip), vehicle: saline with Tween-80.
The mark [8] stands for this setting: dose: 100.0 mg/kg/injection, schedule: Q01DX005 (ip), vehicle: saline with Tween-80.
Where [9] appears, read: dose: 200.0 mg/kg/injection, schedule: Q01DX005 (ip), vehicle: saline with Tween-80.
[10] abbreviates: dose: 50.0 mg/kg/injection, schedule: Q01DX009 (ip), vehicle: saline with Tween-80.
Where [11] appears, read: dose: 50.0 mg/kg/injection, schedule: Q01DX005 (ip), vehicle: Klucel (hydroxypropylcellulose) (HPC).
Setting [12] is: dose: 100.0 mg/kg/injection, schedule: Q01DX005 (ip), vehicle: Klucel (hydroxypropylcellulose) (HPC).
[13] abbreviates: dose: 200.0 mg/kg/injection, schedule: Q01DX005 (ip), vehicle: Klucel (hydroxypropylcellulose) (HPC).
The mark [14] stands for this setting: dose: 100.0 mg/kg/injection, schedule: Q04DX003 (ip), vehicle: Klucel (hydroxypropylcellulose) (HPC).
Setting [15] is: dose: 200.0 mg/kg/injection, schedule: Q04DX003 (ip), vehicle: Klucel (hydroxypropylcellulose) (HPC).
The mark [16] stands for this setting: dose: 400.0 mg/kg/injection, schedule: Q04DX003 (ip), vehicle: Klucel (hydroxypropylcellulose) (HPC).

Where “and” joins values, the source holds several entries; their conditions need not be identical. Equal entries are not always repeated. Toxic doses and inconclusive results are not listed.

For the molecule `CNC1C(O)C2Oc3c(cc(O)c4c3C(=O)c3cc5c(c(O)c3C4=O)C(OC3OC(C)C(OC)C(C)(OC)C3OC)CC(C)(O)C5C(=O)OC)C(C)(O2)C1O` (stereo not given), the T/C by setting is: (dose: 3.12 mg/kg/injection, schedule: Q04DX003 (ip), vehicle: other) 99 % of control; (dose: 6.25 mg/kg/injection, schedule: Q04DX003 (ip), vehicle: other) 115 % of control; (dose: 12.5 mg/kg/injection, schedule: Q04DX003 (ip), vehicle: other) 150 % of control; (dose: 25.0 mg/kg/injection, schedule: Q04DX003 (ip), vehicle: other) 160 % of control.

Turning to `CC(SC(=O)c1ccccc1)(SC(=O)c1ccccc1)c1ccccc1`, the T/C was 94 % of control under setting [1], 95 % of control under setting [2] and 93 % of control under setting [3].

With `Cn1c(=O)c2c(nc(N3CCN(CCO)CC3)n2CC(O)CCl)n(C)c1=O` (stereo not given), the T/C is 100 % of control (dose: 50.0 mg/kg/injection, schedule: Q01DX005 (ip), vehicle: water); 99 % of control (dose: 100.0 mg/kg/injection, schedule: Q01DX005 (ip), vehicle: water); 99 % of control (dose: 200.0 mg/kg/injection, schedule: Q01DX005 (ip), vehicle: water).

For `Cc1ccc2sc3ccccc3c(=O)c2c1`, the T/C reads like this: under setting [4], 104 % of control; under setting [5], 113 % of control; under setting [6], 87 % of control.

With `CN1C=C(c2ccccc2)C=C(c2ccccc2)C1S(=O)(=O)O` (stereo not given), the T/C is 99 % of control (dose: 12.5 mg/kg/injection, schedule: Q01DX005 (ip), vehicle: saline + Tween-80 + alcohol) and 96 % of control (dose: 25.0 mg/kg/injection, schedule: Q01DX005 (ip), vehicle: saline + Tween-80 + alcohol).

`Nc1ccc2nc3c(N)ccc(N)c3nc2c1`: the T/C was 100 % of control and 103 % of control (dose: 3.75 mg/kg/injection, schedule: Q01DX005 (ip), vehicle: saline); 100 % of control and 105 % of control (dose: 7.5 mg/kg/injection, schedule: Q01DX005 (ip), vehicle: saline); 100 % of control and 109 % of control (dose: 15.0 mg/kg/injection, schedule: Q01DX005 (ip), vehicle: saline); 111 % of control and 116 % of control (dose: 30.0 mg/kg/injection, schedule: Q01DX005 (ip), vehicle: saline); 116 % of control (dose: 60.0 mg/kg/injection, schedule: Q01DX005 (ip), vehicle: saline); 118 % of control (dose: 120.0 mg/kg/injection, schedule: Q01DX005 (ip), vehicle: saline).

On to `COc1cccc(N=Nc2c(-c3ccccc3)nn(C(N)=S)c2C)c1`, for which the T/C under setting [7] is 100 % of control, the T/C under setting [8] is 89 % of control and the T/C under setting [9] was 91 % of control.

In the case of `CN=C(N/N=C(C)\C=N\NC(=NC)N(C)C)N(C)C`, the T/C under setting [7] is 109 % of control, the T/C under setting [8] was 105 % of control and the T/C under setting [9] is 105 % of control.

Consider `CCN1C[C@]2(COC)[C@H](O)C[C@H](OC)[C@]34C1[C@H]([C@H](OC)[C@H]23)[C@]1(OC(C)=O)[C@H]2[C@@H](OC(=O)c3ccccc3)[C@](O)(C[C@H]24)[C@@H](OC)[C@@H]1O`, for which the T/C (dose: 0.01 mg/kg/injection, schedule: Q01DX009 (ip), vehicle: saline) was 113 % of control and 88 % of control.

Regarding `CCCN(CCC)CC(C)(C)C(O)c1ccc(OC)c2ccccc12` (stereo not given), the T/C by setting is: (dose: 25.0 mg/kg/injection, schedule: Q01DX005 (ip), vehicle: saline with Tween-80) 110 % of control; under setting [7], 108 % of control.

On to `C[C@]12CC[C@H](OC(=O)/C=C\c3ccccc3N(CCCl)CCCl)CC1CC[C@@H]1C2CC[C@]2(C)NC(=O)CCC12` (stereo not given in full), for which the T/C was 105 % of control and 120 % of control (dose: 100.0 mg/kg/injection, schedule: Q01DX001 (ip), vehicle: saline with Tween-80); 118 % of control (dose: 200.0 mg/kg/injection, schedule: Q01DX001 (ip), vehicle: saline with Tween-80).

Regarding `Cc1cc2nc(N)[nH]c2cc1C`, the T/C reads like this: (dose: 6.25 mg/kg/injection, schedule: Q01DX009 (ip), vehicle: saline with Tween-80) 102 % of control; (dose: 12.5 mg/kg/injection, schedule: Q01DX009 (ip), vehicle: saline with Tween-80) 103 % of control; (dose: 25.0 mg/kg/injection, schedule: Q01DX009 (ip), vehicle: saline with Tween-80) 105 % of control; under setting [10], 103 % of control.

As for `C=CCCCCCCCCC(=O)NCC(C)C`, the T/C is, setting by setting: (dose: 100.0 mg/kg/injection, schedule: Q04DX003 (ip), vehicle: saline with Tween-80) 86 % of control; (dose: 200.0 mg/kg/injection, schedule: Q04DX003 (ip), vehicle: saline with Tween-80) 95 % of control; (dose: 400.0 mg/kg/injection, schedule: Q04DX003 (ip), vehicle: saline with Tween-80) 100 % of control.

`Cc1ccnn1C(C(=O)c1ccccc1)c1ccccc1` (stereo not given): the T/C under setting [10] was 108 % of control; the T/C (dose: 100.0 mg/kg/injection, schedule: Q01DX009 (ip), vehicle: saline with Tween-80) is 105 % of control; the T/C (dose: 200.0 mg/kg/injection, schedule: Q01DX009 (ip), vehicle: saline with Tween-80) is 105 % of control.

On to `COC(=O)[C@@H]1[C@H]2CS(=O)(=O)C[C@H]2[C@@H]1C(=O)OC`, for which the T/C is, setting by setting: under setting [11], 99 % of control; under setting [12], 96 % of control; under setting [13], 100 % of control.

In the case of `O=C(O)CC(CC(=O)N(CCP(c1ccccc1)c1ccccc1)CCP(c1ccccc1)c1ccccc1)C(=O)O` (stereo not given) (tested in a mixture with another compound), the T/C is 111 % of control under setting [4]; 111 % of control under setting [5]; 99 % of control under setting [14]; 112 % of control under setting [6]; 101 % of control under setting [15]; 97 % of control under setting [16].

For `C=CCCC(=O)OC(C)(C)C`, the T/C (dose: 12.5 mg/kg/injection, schedule: Q01DX009 (ip), vehicle: Klucel (hydroxypropylcellulose) (HPC)) is 102 % of control; the T/C (dose: 25.0 mg/kg/injection, schedule: Q01DX009 (ip), vehicle: Klucel (hydroxypropylcellulose) (HPC)) was 101 % of control; the T/C under setting [1] was 104 % of control; the T/C under setting [2] is 101 % of control; the T/C under setting [3] was 103 % of control.

On to `C[Si](C)(C)O[C@@H]1CCCC1NCC#N` (stereo not given in full), for which the T/C by setting is: under setting [7], 101 % of control; under setting [8], 101 % of control; under setting [9], 92 % of control.

Turning to `CCCCC(CC)COCC(O)Cn1cnc2c(N)ncnc21` (stereo not given), the T/C under setting [11] is 104 % of control, the T/C under setting [12] is 97 % of control and the T/C under setting [13] was 91 % of control.

For the molecule `O=c1[nH]cnc2cc(N3CCN(Cc4ccccc4)CC3)c([N+](=O)[O-])cc12`, the T/C is 102 % of control under setting [14], 98 % of control under setting [15] and 106 % of control under setting [16].

For the origin of these results see PubChem BioAssay AID330 (DTP/NCI, 2004).
